Laboratory results taken from ChEMBL document CHEMBL3045696, “CsFCelite catalyzed facile N-alkylation of 2(3H)-benzoxazolones and antimicrobial properties of 2-substituted benzoxazole and 3-substituted-2(3H)-benzoxazolone derivatives” (2011).
Converted amounts (≈) assume the structure as drawn. The source made the active and inactive calls. The rule behind the calls is not given here.

Key:
Type in all cases: functional
[1] = system: Saccharomyces cerevisiae; assay: Antimicrobial activity against Saccharomyces cerevisiae MTCC 36 at 50 ug after 48 hr by agar well diffusion method; settings: MTCC 36, 48 h, read-out: IZ
[2] = system: Candida albicans; assay: Antimicrobial activity against Candida albicans MTCC 227 at 50 ug after 48 hr by agar well diffusion method; settings: MTCC 227, 48 h, read-out: IZ
[3] = system: Rhizopus arrhizus; assay: Antimicrobial activity against Rhizopus oryzae MTCC 262 at 50 ug after 48 hr by agar well diffusion method; settings: MTCC 262, 48 h, read-out: IZ
[4] = system: Aspergillus niger; assay: Antimicrobial activity against Aspergillus niger MTCC 282 at 50 ug after 48 hr by agar well diffusion method; settings: MTCC 282, 48 h, read-out: IZ
[5] = system: Aspergillus niger; assay: Antimicrobial activity against Aspergillus niger MTCC 282 at 100 ug after 48 hr by agar well diffusion method; settings: for zone of inhibition at 100 µg/disc: MTCC 282, 48 h, read-out: IZ
[6] = system: Rhizopus arrhizus; assay: Antimicrobial activity against Rhizopus oryzae MTCC 262 at 100 ug after 48 hr by agar well diffusion method; settings: for zone of inhibition at 100 µg/disc: MTCC 262, 48 h, read-out: IZ
[7] = system: Staphylococcus epidermidis; assay: Antimicrobial activity against Staphylococcus epidermidis by broth dilution method
[8] = system: Aspergillus niger; assay: Antimicrobial activity against Aspergillus niger MTCC 282 at 150 ug after 48 hr by agar well diffusion method; settings: for zone of inhibition at 150 µg/disc: MTCC 282, 48 h, read-out: IZ
[9] = system: Candida albicans; assay: Antimicrobial activity against Candida albicans MTCC 227 at 100 ug after 48 hr by agar well diffusion method; settings: for zone of inhibition at 100 µg/disc: MTCC 227, 48 h, read-out: IZ
[10] = system: Saccharomyces cerevisiae; assay: Antimicrobial activity against Saccharomyces cerevisiae MTCC 36 at 150 ug after 48 hr by agar well diffusion method; settings: for zone of inhibition at 150 µg/disc: MTCC 36, 48 h, read-out: IZ
[11] = system: Bacillus subtilis; assay: Antimicrobial activity against Bacillus subtilis MTCC 441 by broth dilution method
[12] = system: Rhizopus arrhizus; assay: Antimicrobial activity against Rhizopus oryzae MTCC 262 at 150 ug after 48 hr by agar well diffusion method; settings: for zone of inhibition at 150 µg/disc: MTCC 262, 48 h, read-out: IZ
[13] = system: Pseudomonas aeruginosa; assay: Antimicrobial activity against Pseudomonas aeruginosa MTCC 741 by broth dilution method
[14] = system: Escherichia coli; assay: Antimicrobial activity against Escherichia coli MTCC 443 by broth dilution method
[15] = system: Candida albicans; assay: Antimicrobial activity against Candida albicans MTCC 227 at 150 ug after 48 hr by agar well diffusion method; settings: for zone of inhibition at 150 µg/disc: MTCC 227, 48 h, read-out: IZ
[16] = system: Staphylococcus aureus; assay: Antimicrobial activity against Staphylococcus aureus MTCC 96 by broth dilution method
[17] = system: Klebsiella pneumoniae; assay: Antimicrobial activity against Klebsiella pneumoniae MTCC 618 by broth dilution method
[18] = system: Saccharomyces cerevisiae; assay: Antimicrobial activity against Saccharomyces cerevisiae MTCC 36 at 100 ug after 48 hr by agar well diffusion method; settings: for zone of inhibition at 100 µg/disc: MTCC 36, 48 h, read-out: IZ

SMILES	MIC [7]	MIC [11]	MIC [13]	MIC [14]	MIC [16]	MIC [17]	Activity [5]	Activity [6]	zone of inhibition at 150 µg/disc [8]	Activity [9]	zone of inhibition at 150 µg/disc [10]	zone of inhibition at 150 µg/disc [12]	zone of inhibition at 150 µg/disc [15]	zone of inhibition at 100 µg/disc [18]	Activity [8]	Activity [10]	Activity [12]	Activity [15]	Activity [18]	zone of inhibition at 100 µg/disc [5]	also measured
C[C@@H]1[C@H](O)[C@@H](C)/C=C/C=C/C=C/C=C/C=C/C=C/C=C/[C@H](O[C@@H]2O[C@H](C)[C@@H](O)[C@H](N)[C@@H]2O)C[C@@H]2O[C@](O)(C[C@@H](O)C[C@@H](O)[C@H](O)CC[C@@H](O)C[C@@H](O)CC(=O)O[C@H]1C)C[C@H](O)[C@H]2C(=O)O [AMPHOTERICIN B]																					zone of inhibition at 50 µg/disc [1]: 22 mm; zone of inhibition at 50 µg/disc [2]: 23.5 mm; zone of inhibition at 50 µg/disc [3]: 24 mm; zone of inhibition at 50 µg/disc [4]: 25 mm
Clc1cccc(N2CCN(c3nc4ccccc4o3)CC2)c1	150 µg/mL (≈ 478 µM)	150 µg/mL (≈ 478 µM)	150 µg/mL (≈ 478 µM)	150 µg/mL (≈ 478 µM)	75 µg/mL (≈ 239 µM)	150 µg/mL (≈ 478 µM)	inactive	inactive		inactive					inactive	inactive	inactive	inactive	inactive		
CC(C)=CCn1c(=O)oc2ccc(Cl)cc21	75 µg/mL (≈ 316 µM)	150 µg/mL (≈ 631 µM)	75 µg/mL (≈ 316 µM)	150 µg/mL (≈ 631 µM)	150 µg/mL (≈ 631 µM)	150 µg/mL (≈ 631 µM)		inactive	11 mm		10 mm	9 mm	10 mm	8 mm						8 mm	zone of inhibition at 100 µg/disc [9]: 7 mm
c1ccc2oc(N3CCOCC3)nc2c1	150 µg/mL (≈ 734 µM)	150 µg/mL (≈ 734 µM)	150 µg/mL (≈ 734 µM)	150 µg/mL (≈ 734 µM)	75 µg/mL (≈ 367 µM)	37.5 µg/mL (≈ 184 µM)	inactive	inactive					9 mm		inactive	inactive	inactive		inactive		zone of inhibition at 100 µg/disc [9]: 7 mm
O=c1oc2ccc(Cl)cc2n1CCCN1CCOCC1	75 µg/mL (≈ 253 µM)	75 µg/mL (≈ 253 µM)	37.5 µg/mL (≈ 126 µM)	37.5 µg/mL (≈ 126 µM)	75 µg/mL (≈ 253 µM)	75 µg/mL (≈ 253 µM)			10 mm		10 mm	13 mm	10 mm	8 mm						8 mm	zone of inhibition at 100 µg/disc [6]: 10 mm; zone of inhibition at 100 µg/disc [9]: 8 mm
O=c1oc2ccc(Cl)cc2n1CCCN1CCN(c2cccc(Cl)c2)CC1	150 µg/mL (≈ 369 µM)	150 µg/mL (≈ 369 µM)	150 µg/mL (≈ 369 µM)	150 µg/mL (≈ 369 µM)	150 µg/mL (≈ 369 µM)	150 µg/mL (≈ 369 µM)	inactive	inactive		inactive					inactive	inactive	inactive	inactive	inactive		
CC1CN(c2nc3ccccc3o2)CCN1 (centres undefined)	150 µg/mL (≈ 690 µM)	150 µg/mL (≈ 690 µM)	150 µg/mL (≈ 690 µM)	75 µg/mL (≈ 345 µM)	150 µg/mL (≈ 690 µM)	150 µg/mL (≈ 690 µM)	inactive	inactive		inactive					inactive	inactive	inactive	inactive	inactive		
C=CCn1c(=O)oc2ccc(Cl)cc21	150 µg/mL (≈ 716 µM)	150 µg/mL (≈ 716 µM)	75 µg/mL (≈ 358 µM)	150 µg/mL (≈ 716 µM)	150 µg/mL (≈ 716 µM)	37.5 µg/mL (≈ 179 µM)		inactive	10 mm	inactive			8 mm			inactive	inactive		inactive	8 mm	

The next lines start with results.

MIC [7]	MIC [11]	MIC [13]	MIC [14]	MIC [16]	MIC [17]	SMILES	Activity [5]	Activity [6]	zone of inhibition at 150 µg/disc [8]	Activity [9]	zone of inhibition at 150 µg/disc [10]	zone of inhibition at 150 µg/disc [12]	zone of inhibition at 150 µg/disc [15]	zone of inhibition at 100 µg/disc [18]	Activity [8]	Activity [10]	Activity [12]	Activity [15]	Activity [18]	zone of inhibition at 100 µg/disc [5]	also measured
75 µg/mL (≈ 256 µM)	150 µg/mL (≈ 511 µM)	75 µg/mL (≈ 256 µM)	150 µg/mL (≈ 511 µM)	150 µg/mL (≈ 511 µM)	150 µg/mL (≈ 511 µM)	c1ccc(CN2CCN(c3nc4ccccc4o3)CC2)cc1	inactive	inactive	9 mm	inactive	10 mm	9 mm	9 mm	12 mm							
150 µg/mL (≈ 742 µM)	150 µg/mL (≈ 742 µM)	150 µg/mL (≈ 742 µM)	150 µg/mL (≈ 742 µM)	150 µg/mL (≈ 742 µM)	150 µg/mL (≈ 742 µM)	c1ccc2oc(N3CCCCC3)nc2c1			10 mm		12 mm	11 mm	12 mm	9 mm						8 mm	zone of inhibition at 100 µg/disc [6]: 8 mm; zone of inhibition at 100 µg/disc [9]: 9 mm
150 µg/mL (≈ 607 µM)	150 µg/mL (≈ 607 µM)	75 µg/mL (≈ 303 µM)	150 µg/mL (≈ 607 µM)	75 µg/mL (≈ 303 µM)	75 µg/mL (≈ 303 µM)	OCCN1CCN(c2nc3ccccc3o2)CC1	inactive	inactive		inactive					inactive	inactive	inactive	inactive	inactive		
